≈ marks a conversion by molar mass, not a printed value. Where “and” joins values, the source holds several entries; their conditions need not be identical. Equal values may be shown once.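 Test compounds were applied to cells in 96-well plates for 48 hours at 5 doses. GI50 marks 50% less growth. TGI denotes the concentration required for complete inhibition of growth.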
Columns and labels:
Test in all cases: NCI tumour cell line growth inhibition, 48 h
HOP-92 NSCLC = test system: HOP-92 NSCLC
SN12C renal = test system: SN12C renal
EKVX NSCLC = test system: EKVX NSCLC
NCI-H23 lung = test system: NCI-H23 lung
OVCAR-8 ovarian = test system: OVCAR-8 ovarian
A549 NSCLC = test system: A549 NSCLC
CAKI-1 renal = test system: CAKI-1 renal
NCI-H226 lung = test system: NCI-H226 lung
K-562 leukemia = test system: K-562 leukemia
TK-10 renal = test system: TK-10 renal
SK-MEL-2 melanoma = test system: SK-MEL-2 melanoma
HCT-15 colon = test system: HCT-15 colon
U251 CNS = test system: U251 CNS
SNB-19 CNS = test system: SNB-19 CNS
LOX IMVI melanoma = test system: LOX IMVI melanoma
SK-MEL-5 melanoma = test system: SK-MEL-5 melanoma
DMS 273 small cell lung = test system: DMS 273 small cell lung
M14 melanoma = test system: M14 melanoma
MALME-3M melanoma = test system: MALME-3M melanoma
DLD-1 colon = test system: DLD-1 colon
SF-295 CNS = test system: SF-295 CNS
SK-MEL-28 melanoma = test system: SK-MEL-28 melanoma
SR leukemia = test system: SR leukemia
XF 498 CNS = test system: XF 498 CNS
ACHN renal = test system: ACHN renal
NCI-H522 lung = test system: NCI-H522 lung
OVCAR-3 ovarian = test system: OVCAR-3 ovarian
HOP-62 NSCLC = test system: HOP-62 NSCLC
HCT-116 colon = test system: HCT-116 colon
SF-539 CNS = test system: SF-539 CNS
LXFL 529 NSCLC = test system: LXFL 529 NSCLC
CCRF-CEM leukemia = test system: CCRF-CEM leukemia
SF-268 CNS = test system: SF-268 CNS
KM12 colon = test system: KM12 colon
SW-620 colon = test system: SW-620 colon
A498 renal = test system: A498 renal
SNB-78 CNS = test system: SNB-78 CNS
SNB-75 CNS = test system: SNB-75 CNS
NCI-H460 lung = test system: NCI-H460 lung
OVCAR-5 ovarian = test system: OVCAR-5 ovarian
HL-60(TB) leukemia = test system: HL-60(TB) leukemia
KM20L2 colon = test system: KM20L2 colon
HOP-18 NSCLC = test system: HOP-18 NSCLC
UACC-62 melanoma = test system: UACC-62 melanoma
DMS 114 small cell lung = test system: DMS 114 small cell lung
IGROV1 ovarian = test system: IGROV1 ovarian
HT29 colon = test system: HT29 colon
RXF-631 renal = test system: RXF-631 renal
SK-OV-3 ovarian = test system: SK-OV-3 ovarian
HCC-2998 colon = test system: HCC-2998 colon
COLO 205 colon = test system: COLO 205 colon
RXF 393 renal = test system: RXF 393 renal
OVCAR-4 ovarian = test system: OVCAR-4 ovarian
UO-31 renal = test system: UO-31 renal
786-0 renal = test system: 786-0 renal
UACC-257 melanoma = test system: UACC-257 melanoma
RPMI-8226 leukemia = test system: RPMI-8226 leukemia
NCI/ADR-RES ovarian = test system: NCI/ADR-RES ovarian
P388/ADR leukemia = test system: P388/ADR leukemia
MOLT-4 leukemia = test system: MOLT-4 leukemia
M19-MEL melanoma = test system: M19-MEL melanoma
SN12K1 renal = test system: SN12K1 renal
MCF7 breast = test system: MCF7 breast
P388 leukemia = test system: P388 leukemia

Cn1c2c([N+](=O)[O-])[se]nc2c(=O)n1-c1ccc([N+](=O)[O-])cc1
TGI (HOP-92 NSCLC): 3.37 µM | TGI (SN12C renal): 3.46 µM | TGI (EKVX NSCLC): 5.23 µM | TGI (NCI-H23 lung): 4.49 µM | TGI (OVCAR-8 ovarian): 2.72 µM | TGI (A549 NSCLC): 20.6 µM | TGI (CAKI-1 renal): 4.03 µM | TGI (NCI-H226 lung): 7.91 µM | TGI (K-562 leukemia): > 100 µM | TGI (TK-10 renal): 16.2 µM | TGI (SK-MEL-2 melanoma): 11.2 µM | TGI (HCT-15 colon): 2.73 µM | TGI (U251 CNS): 7.04 µM | TGI (SNB-19 CNS): 18.4 µM | TGI (LOX IMVI melanoma): 6.88 µM | TGI (SK-MEL-5 melanoma): 14.6 µM | TGI (DMS 273 small cell lung): 6.96 µM | TGI (M14 melanoma): 2.62 µM | TGI (MALME-3M melanoma): 3.23 µM | TGI (DLD-1 colon): 2.69 µM | TGI (SF-295 CNS): 11.6 µM | TGI (SK-MEL-28 melanoma): 4.39 µM | TGI (SR leukemia): 0.271 µM | TGI (XF 498 CNS): 3.71 µM | TGI (ACHN renal): 3.71 µM | TGI (NCI-H522 lung): 2.94 µM | TGI (OVCAR-3 ovarian): 3.12 µM | TGI (HOP-62 NSCLC): 14.2 µM | TGI (HCT-116 colon): 3.39 µM | TGI (SF-539 CNS): 4.49 µM | TGI (LXFL 529 NSCLC): 2.5 µM | TGI (CCRF-CEM leukemia): > 100 µM | TGI (SF-268 CNS): 4.77 µM | TGI (KM12 colon): 15.7 µM | TGI (SW-620 colon): 1.48 µM | TGI (A498 renal): 23.7 µM | TGI (SNB-78 CNS): 3.76 µM | TGI (SNB-75 CNS): 7.63 µM | TGI (NCI-H460 lung): 6.77 µM | TGI (OVCAR-5 ovarian): 4.44 µM | TGI (HL-60(TB) leukemia): > 23.1 µM | TGI (KM20L2 colon): 18.3 µM | TGI (HOP-18 NSCLC): 5.17 µM | TGI (UACC-62 melanoma): 3.25 µM | TGI (DMS 114 small cell lung): 0.575 µM | TGI (IGROV1 ovarian): 2.59 µM | TGI (HT29 colon): 8.12 µM | TGI (RXF-631 renal): 4.04 µM | TGI (SK-OV-3 ovarian): 6.1 µM | TGI (HCC-2998 colon): 3.62 µM | TGI (COLO 205 colon): 4.23 µM | TGI (RXF 393 renal): 2.21 µM | TGI (OVCAR-4 ovarian): 0.909 µM | TGI (UO-31 renal): 3.59 µM | TGI (786-0 renal): 6.5 µM | TGI (UACC-257 melanoma): 4.17 µM | TGI (RPMI-8226 leukemia): 5.51 µM

Cc1c[nH]c2c1C13CC1CN(C(=O)c1cc4cc(NC(=O)c5cc6ccccc6o5)ccc4[nH]1)C3=CC2=O (stereo not drawn)
GI50 (HOP-92 NSCLC): > 1.17 ng/mL | GI50 (SN12C renal): > 1.17 ng/mL | TGI (SN12C renal): < 0.001 µM | GI50 (NCI-H23 lung): > 1.17 ng/mL | TGI (NCI-H23 lung): < 0.001 µM | GI50 (OVCAR-8 ovarian): > 1.17 ng/mL | TGI (OVCAR-8 ovarian): < 0.001 µM | GI50 (A549 NSCLC): > 1.17 ng/mL | GI50 (CAKI-1 renal): > 1.17 ng/mL | TGI (CAKI-1 renal): < 0.001 µM | GI50 (NCI/ADR-RES ovarian): > 1.17 ng/mL | TGI (NCI-H226 lung): < 0.001 µM | GI50 (K-562 leukemia): > 1.17 ng/mL | TGI (TK-10 renal): < 0.001 µM | GI50 (SK-MEL-2 melanoma): > 1.17 ng/mL | TGI (SK-MEL-2 melanoma): < 0.001 µM | GI50 (HCT-15 colon): > 1.17 ng/mL | TGI (HCT-15 colon): < 0.001 µM | TGI (U251 CNS): < 0.001 µM | TGI (SNB-19 CNS): 0.00481 µM | GI50 (LOX IMVI melanoma): > 1.17 ng/mL | TGI (LOX IMVI melanoma): < 0.001 µM | GI50 (SK-MEL-5 melanoma): > 1.17 ng/mL | TGI (SK-MEL-5 melanoma): < 0.001 µM | GI50 (DMS 273 small cell lung): > 1.17 ng/mL | TGI (M14 melanoma): < 0.001 µM | TGI (MALME-3M melanoma): < 0.001 µM | GI50 (DLD-1 colon): > 1.17 ng/mL | TGI (DLD-1 colon): 34.6 nM and 1.69 µg/mL | GI50 (SF-295 CNS): > 1.17 ng/mL | TGI (SF-295 CNS): < 0.001 µM | TGI (SR leukemia): < 0.001 µM | GI50 (NCI-H522 lung): > 1.17 ng/mL | TGI (NCI-H522 lung): < 0.001 µM | GI50 (OVCAR-3 ovarian): > 1.17 ng/mL | GI50 (HCT-116 colon): > 1.17 ng/mL | TGI (HCT-116 colon): 11.2 nM and 0.117 µg/mL | TGI (SF-539 CNS): < 0.001 µM | GI50 (CCRF-CEM leukemia): > 1.17 ng/mL | TGI (CCRF-CEM leukemia): 0.0682 µM | GI50 (SF-268 CNS): > 1.17 ng/mL | TGI (SF-268 CNS): < 0.001 µM | TGI (KM12 colon): < 0.001 µM | GI50 (SW-620 colon): > 1.17 ng/mL | TGI (SW-620 colon): 1.07 nM and 0.00324 µg/mL | GI50 (SNB-78 CNS): > 1.17 ng/mL | TGI (SNB-78 CNS): 32.1 nM and 0.0318 µg/mL | GI50 (P388/ADR leukemia): > 1.17 ng/mL | GI50 (NCI-H460 lung): > 1.17 ng/mL | TGI (NCI-H460 lung): < 0.001 µM | GI50 (OVCAR-5 ovarian): > 1.17 ng/mL | TGI (OVCAR-5 ovarian): < 0.001 µM | GI50 (HL-60(TB) leukemia): > 1.17 ng/mL | TGI (KM20L2 colon): < 0.001 µM | GI50 (MOLT-4 leukemia): > 1.17 ng/mL | TGI (MOLT-4 leukemia): 0.0031 µM | TGI (M19-MEL melanoma): < 0.001 µM | GI50 (SN12K1 renal): > 1.17 ng/mL | TGI (HOP-18 NSCLC): < 0.001 µM | GI50 (UACC-62 melanoma): > 1.17 ng/mL | TGI (UACC-62 melanoma): < 0.001 µM | GI50 (DMS 114 small cell lung): > 1.17 ng/mL | TGI (DMS 114 small cell lung): < 0.001 µM | GI50 (IGROV1 ovarian): > 1.17 ng/mL | TGI (IGROV1 ovarian): 13.5 ng/mL | GI50 (HT29 colon): > 1.17 ng/mL | TGI (HT29 colon): 0.143 µM | TGI (RXF-631 renal): 0.0139 µM | GI50 (SK-OV-3 ovarian): > 1.17 ng/mL | TGI (SK-OV-3 ovarian): 218 ng/mL | GI50 (MCF7 breast): > 1.17 ng/mL | TGI (MCF7 breast): 11700 ng/mL (≈ 23300 nM) | GI50 (HCC-2998 colon): > 1.17 ng/mL | TGI (HCC-2998 colon): < 0.001 µM | GI50 (P388 leukemia): > 1.17 ng/mL | TGI (RXF 393 renal): < 0.001 µM | GI50 (OVCAR-4 ovarian): > 1.17 ng/mL | TGI (OVCAR-4 ovarian): < 0.001 µM | GI50 (UO-31 renal): > 1.17 ng/mL | TGI (786-0 renal): < 0.001 µM | GI50 (RPMI-8226 leukemia): > 1.17 ng/mL
